Assay [1] addresses CDK8/Cyclin C (Homo sapiens) (UniProt P49336+P24863). The experiment in a line: Inhibition of human CDK8/cyclin C at 1 uM incubated for 30 mins by ELISA. The class given is protein-complex assay. (An ELISA detects its analyte on a solid surface through an enzyme-linked reagent.)
The next assay relates to MV4-11. The experiment in a line: Inhibition of cell proliferation of human MV4-11 cells at 1 uM incubated for 3 days by CellTiter 96 aqueous one solution cell proliferation assay. As to conditions: MV4-11, 72 h, time 3 day. The class given is functional.
In assay [2] the target is CDK7/Cyclin H/MNAT1 (Homo sapiens) (UniProt P51946+P50613+P51948). Put plainly: Inhibition of human CDK7/CycH/MAT1 at 1 uM using substrate peptide by off-chip mobility shift assay. It counts as protein-complex assay.
For assay [3], the target named is Cyclin-dependent kinase 1/cyclin B1 (Homo sapiens) (UniProt P06493+P14635). Put plainly: Inhibition of human CDC2/CycB1 at 1 uM using substrate peptide by off-chip mobility shift assay. The class given is protein-complex assay.
Assay [4] addresses AMP-activated protein kinase (AMPK) alpha-1/beta-1/gamma-1 (Homo sapiens) (UniProt P54619+Q9Y478+Q13131). Put plainly: Inhibition of human AMPKalpha1/beta1/gamma1 at 1 uM using substrate peptide by off-chip mobility shift assay.
The target in assay [5] is Death-associated protein kinase 1 (Homo sapiens) (UniProt P53355). Put plainly: Inhibition of human DAPK1 at 1 uM using substrate peptide by off-chip mobility shift assay.
Assay [6] concerns the target Glycogen synthase kinase-3 beta (Homo sapiens) (UniProt P49841). Put plainly: Inhibition of human GSK3beta at 1 uM using substrate peptide by off-chip mobility shift assay.
Assay [7] deals with RAC-alpha serine/threonine-protein kinase (Homo sapiens) (UniProt P31749). Put plainly: Inhibition of human AKT1 at 1 uM using substrate peptide by off-chip mobility shift assay.
RAC-alpha serine/threonine-protein kinase (Homo sapiens), sequence (P31749 whole entry): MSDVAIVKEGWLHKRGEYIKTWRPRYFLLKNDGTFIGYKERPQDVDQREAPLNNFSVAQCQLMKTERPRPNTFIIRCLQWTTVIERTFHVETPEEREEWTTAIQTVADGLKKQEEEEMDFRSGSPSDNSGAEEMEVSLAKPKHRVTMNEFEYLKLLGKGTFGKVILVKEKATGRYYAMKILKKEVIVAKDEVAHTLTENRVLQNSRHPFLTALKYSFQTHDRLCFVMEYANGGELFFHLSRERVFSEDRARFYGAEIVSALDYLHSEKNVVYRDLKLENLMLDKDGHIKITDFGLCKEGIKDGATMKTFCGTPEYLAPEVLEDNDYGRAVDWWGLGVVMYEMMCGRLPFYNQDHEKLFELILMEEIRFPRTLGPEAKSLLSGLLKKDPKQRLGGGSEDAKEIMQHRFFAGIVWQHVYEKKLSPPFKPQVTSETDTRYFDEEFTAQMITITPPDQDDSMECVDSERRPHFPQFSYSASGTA
Assay [8] has as its target Interleukin-1 receptor-associated kinase 4 (Homo sapiens) (UniProt Q9NWZ3). Put plainly: Inhibition of human JNK2 at 1 uM using substrate peptide by off-chip mobility shift assay.
In assay [9] the target is Mitogen-activated protein kinase kinase kinase kinase 2 (Homo sapiens) (UniProt Q12851). Put plainly: Inhibition of human MAP4K2 at 1 uM using substrate peptide by off-chip mobility shift assay.
Assay [10] concerns the target 3-phosphoinositide-dependent protein kinase 1 (Homo sapiens) (UniProt O15530). Put plainly: Inhibition of human PDK1 at 1 uM using substrate peptide by off-chip mobility shift assay.
Assay [11] concerns the target Serine/threonine-protein kinase 4 (Homo sapiens) (UniProt Q13043). The experiment in a line: Inhibition of human MST1 at 1 uM using substrate peptide by off-chip mobility shift assay.
Assay [12] deals with Serine/threonine-protein kinase PAK 2 (Homo sapiens) (UniProt Q13177). Put plainly: Inhibition of human PAK2 at 1 uM using substrate peptide by off-chip mobility shift assay.
Serine/threonine-protein kinase PAK 2 (Homo sapiens), sequence (Q13177 whole entry): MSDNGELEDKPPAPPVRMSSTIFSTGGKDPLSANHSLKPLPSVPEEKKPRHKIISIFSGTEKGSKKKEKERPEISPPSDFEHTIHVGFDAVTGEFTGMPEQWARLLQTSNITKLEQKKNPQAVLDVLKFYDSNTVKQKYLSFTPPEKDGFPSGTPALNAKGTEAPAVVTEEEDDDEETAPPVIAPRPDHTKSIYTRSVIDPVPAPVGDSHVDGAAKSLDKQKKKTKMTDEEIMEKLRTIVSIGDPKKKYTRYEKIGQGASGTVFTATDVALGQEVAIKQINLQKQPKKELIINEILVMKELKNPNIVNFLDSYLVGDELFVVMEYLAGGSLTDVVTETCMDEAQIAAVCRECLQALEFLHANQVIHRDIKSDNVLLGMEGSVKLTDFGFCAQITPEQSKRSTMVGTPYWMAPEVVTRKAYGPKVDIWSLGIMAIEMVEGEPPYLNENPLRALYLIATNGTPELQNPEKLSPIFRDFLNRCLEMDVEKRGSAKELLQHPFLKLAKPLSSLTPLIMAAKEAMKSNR
The target of assay [13] is Mitogen-activated protein kinase kinase kinase kinase 4 (Homo sapiens) (UniProt O95819). The experiment in a line: Inhibition of human HGK at 1 uM using substrate peptide by off-chip mobility shift assay.
Mitogen-activated protein kinase kinase kinase kinase 4 (Homo sapiens), sequence (O95819 2-1239 limits assumed): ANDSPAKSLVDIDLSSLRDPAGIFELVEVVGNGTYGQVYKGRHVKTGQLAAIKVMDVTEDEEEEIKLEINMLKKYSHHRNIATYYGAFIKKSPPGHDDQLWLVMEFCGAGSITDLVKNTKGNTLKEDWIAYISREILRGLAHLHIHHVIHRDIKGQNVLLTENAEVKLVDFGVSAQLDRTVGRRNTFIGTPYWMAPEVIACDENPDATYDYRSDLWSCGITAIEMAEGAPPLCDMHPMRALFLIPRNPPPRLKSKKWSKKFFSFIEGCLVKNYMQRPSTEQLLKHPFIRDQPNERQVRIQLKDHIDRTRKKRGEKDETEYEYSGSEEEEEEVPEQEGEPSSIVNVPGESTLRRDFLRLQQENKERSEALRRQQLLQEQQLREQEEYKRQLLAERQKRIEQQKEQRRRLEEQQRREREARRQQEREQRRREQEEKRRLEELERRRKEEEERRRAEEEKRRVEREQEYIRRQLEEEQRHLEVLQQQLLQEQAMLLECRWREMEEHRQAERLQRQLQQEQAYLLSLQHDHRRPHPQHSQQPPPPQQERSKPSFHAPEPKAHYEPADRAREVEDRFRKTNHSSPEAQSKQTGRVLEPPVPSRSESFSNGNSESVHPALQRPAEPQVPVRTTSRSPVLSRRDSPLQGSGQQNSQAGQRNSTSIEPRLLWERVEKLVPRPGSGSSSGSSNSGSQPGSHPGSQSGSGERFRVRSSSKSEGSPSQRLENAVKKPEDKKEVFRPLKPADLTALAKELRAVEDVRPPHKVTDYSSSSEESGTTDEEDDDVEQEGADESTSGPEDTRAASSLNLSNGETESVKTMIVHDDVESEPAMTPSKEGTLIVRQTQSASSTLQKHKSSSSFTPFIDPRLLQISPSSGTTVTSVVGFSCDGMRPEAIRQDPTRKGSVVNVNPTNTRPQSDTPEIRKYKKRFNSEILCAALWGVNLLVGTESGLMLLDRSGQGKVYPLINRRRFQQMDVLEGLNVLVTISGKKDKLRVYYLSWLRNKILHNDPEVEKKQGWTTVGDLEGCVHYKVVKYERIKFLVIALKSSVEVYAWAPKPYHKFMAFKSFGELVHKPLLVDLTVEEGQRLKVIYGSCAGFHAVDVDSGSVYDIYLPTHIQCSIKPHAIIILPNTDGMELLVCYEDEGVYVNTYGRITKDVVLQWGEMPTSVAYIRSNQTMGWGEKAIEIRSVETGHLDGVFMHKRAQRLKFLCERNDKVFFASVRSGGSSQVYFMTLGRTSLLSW
Assay [14] deals with Testis-specific serine/threonine-protein kinase 1 (Homo sapiens) (UniProt Q9BXA7). The experiment in a line: Inhibition of human TSSK1 at 1 uM using substrate peptide by off-chip mobility shift assay.
The target of assay [15] is Cyclin-dependent kinase 5/CDK5 activator 1 (Homo sapiens) (UniProt Q00535+Q15078). The experiment in a line: Inhibition of human CDK5/p25 at 1 uM using substrate peptide by off-chip mobility shift assay. The class given is protein-complex assay.
Assay [16] concerns the target Mitogen-activated protein kinase 1 (Homo sapiens) (UniProt P28482). Put plainly: Inhibition of human ERK2 at 1 uM using substrate peptide by off-chip mobility shift assay.
Assay [17] is filed under the species Homo sapiens. The experiment in a line: Inhibition of human CK1delta at 1 uM using substrate peptide by off-chip mobility shift assay.
In assay [18] the target is Serine/threonine-protein kinase Chk1 (Homo sapiens) (UniProt O14757). Put plainly: Inhibition of human CHK1 at 1 uM using substrate peptide by off-chip mobility shift assay.
Assay [19] addresses Serine/threonine-protein kinase D2 (Homo sapiens) (UniProt Q9BZL6). Put plainly: Inhibition of human PKD2 at 1 uM using substrate peptide by off-chip mobility shift assay.
The target in assay [20] is Cyclin-dependent kinase 2/cyclin E1 (Homo sapiens) (UniProt P24864+P24941). Put plainly: Inhibition of human CDK2/CycE1 at 1 uM using substrate peptide by off-chip mobility shift assay. It counts as protein-complex assay.
In assay [21] the target is Cyclin-dependent kinase 19 (Homo sapiens) (UniProt Q9BWU1). The experiment in a line: Inhibition of CDK19 (unknown origin) at 1 uM incubated for 30 mins by ELISA.
Cyclin-dependent kinase 19 (Homo sapiens), sequence (Q9BWU1 whole entry): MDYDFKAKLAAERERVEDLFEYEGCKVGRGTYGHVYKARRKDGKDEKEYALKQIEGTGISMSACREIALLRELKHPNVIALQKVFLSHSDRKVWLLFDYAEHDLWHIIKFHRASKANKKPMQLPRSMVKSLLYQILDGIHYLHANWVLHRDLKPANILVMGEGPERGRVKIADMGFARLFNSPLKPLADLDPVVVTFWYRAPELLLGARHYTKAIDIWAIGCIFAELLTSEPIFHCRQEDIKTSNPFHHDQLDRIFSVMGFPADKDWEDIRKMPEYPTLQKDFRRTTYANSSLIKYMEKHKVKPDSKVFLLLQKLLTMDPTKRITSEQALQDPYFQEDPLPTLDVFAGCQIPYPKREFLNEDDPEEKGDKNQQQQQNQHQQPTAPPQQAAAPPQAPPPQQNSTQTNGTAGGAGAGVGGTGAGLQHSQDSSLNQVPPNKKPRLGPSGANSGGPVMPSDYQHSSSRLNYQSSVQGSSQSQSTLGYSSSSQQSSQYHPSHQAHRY
Assay [22] deals with Inhibitor of nuclear factor kappa-B kinase subunit beta (Homo sapiens) (UniProt O14920). The experiment in a line: Inhibition of human IKKbeta at 1 uM using substrate peptide by off-chip mobility shift assay.
Inhibitor of nuclear factor kappa-B kinase subunit beta (Homo sapiens), sequence (O14920 whole entry): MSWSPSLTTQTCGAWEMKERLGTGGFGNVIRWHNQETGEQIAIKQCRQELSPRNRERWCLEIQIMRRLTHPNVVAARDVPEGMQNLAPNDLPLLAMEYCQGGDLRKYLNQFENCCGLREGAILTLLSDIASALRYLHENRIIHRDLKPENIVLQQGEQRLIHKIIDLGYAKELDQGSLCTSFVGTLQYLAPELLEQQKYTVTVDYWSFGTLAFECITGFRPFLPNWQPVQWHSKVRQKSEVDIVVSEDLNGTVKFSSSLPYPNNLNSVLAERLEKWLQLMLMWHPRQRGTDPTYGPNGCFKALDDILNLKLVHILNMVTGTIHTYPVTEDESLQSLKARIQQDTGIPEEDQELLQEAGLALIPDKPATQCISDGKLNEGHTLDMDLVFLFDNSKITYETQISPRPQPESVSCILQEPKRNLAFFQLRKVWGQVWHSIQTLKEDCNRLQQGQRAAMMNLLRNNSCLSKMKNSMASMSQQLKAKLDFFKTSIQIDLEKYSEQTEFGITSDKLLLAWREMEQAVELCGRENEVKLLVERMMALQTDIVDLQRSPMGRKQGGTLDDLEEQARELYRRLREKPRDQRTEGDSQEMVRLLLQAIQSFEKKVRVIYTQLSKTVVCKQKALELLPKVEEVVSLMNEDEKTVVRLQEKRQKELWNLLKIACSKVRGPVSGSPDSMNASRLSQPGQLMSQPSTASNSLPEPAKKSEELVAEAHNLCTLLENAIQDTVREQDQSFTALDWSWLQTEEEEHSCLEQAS
For assay [23], the target named is Serine/threonine-protein kinase pim-1 (Homo sapiens) (UniProt P11309). The experiment in a line: Inhibition of human PIM1 at 1 uM using substrate peptide by off-chip mobility shift assay.
Assay [24] has as its target Calcium/calmodulin-dependent protein kinase type IV (Homo sapiens) (UniProt Q16566). The experiment in a line: Inhibition of human CaMK4 at 1 uM using substrate peptide by off-chip mobility shift assay.
Assay [25] concerns the target Aurora kinase A (Homo sapiens) (UniProt O14965). The experiment in a line: Inhibition of human Aurora A at 1 uM using substrate peptide by off-chip mobility shift assay.
Assay [26] has as its target Interleukin-1 receptor-associated kinase 4 (Homo sapiens) (UniProt Q9NWZ3). The experiment in a line: Inhibition of human IRAK4 at 1 uM using substrate peptide by off-chip mobility shift assay.
The target in assay [27] is Rho-associated protein kinase 1 (Homo sapiens) (UniProt Q13464). Put plainly: Inhibition of human ROCK1 at 1 uM using substrate peptide by off-chip mobility shift assay.
Assay [28] concerns the target Serine/threonine-protein kinase Sgk1 (Homo sapiens) (UniProt O00141). The experiment in a line: Inhibition of human SGK at 1 uM using substrate peptide by off-chip mobility shift assay.
Assay [29] concerns the target CDK3/Cyclin E (Homo sapiens) (UniProt P24864+Q00526). Put plainly: Inhibition of human CDK3/CycE1 at 1 uM using substrate peptide by off-chip mobility shift assay. The class given is protein-complex assay.
Assay [30] addresses CDK2/Cyclin C (Homo sapiens) (UniProt P24941+P24863). The experiment in a line: Inhibition of human CDK2/CycC2 at 1 uM using substrate peptide by off-chip mobility shift assay.
For assay [31], the target named is CDK6/cyclin D3 (Homo sapiens) (UniProt P30281+Q00534). The experiment in a line: Inhibition of human CDK6/cyclinD3 at 1 uM using substrate peptide by off-chip mobility shift assay. It counts as protein-complex assay.
Assay [32] deals with CDK9/cyclin T1 (Homo sapiens) (UniProt O60563+P50750). The experiment in a line: Inhibition of human CDK9/CycT1 at 1 uM using substrate peptide by off-chip mobility shift assay. The class given is protein-complex assay.
In assay [33] the target is CDK4/Cyclin D3 (Homo sapiens) (UniProt P11802+P30281). The experiment in a line: Inhibition of human CDK4/CycD3 at 1 uM using substrate peptide by off-chip mobility shift assay. It counts as protein-complex assay.
For assay [34], the species on record is Homo sapiens. Put plainly: Inhibition of human p70S6K at 1 uM using substrate peptide by off-chip mobility shift assay.
Assay [35] addresses Mitogen-activated protein kinase 14 (Homo sapiens) (UniProt Q16539). Put plainly: Inhibition of human p38alpha at 1 uM using substrate peptide by off-chip mobility shift assay.
In assay [36] the target is Lymphokine-activated killer T-cell-originated protein kinase (Homo sapiens) (UniProt Q96KB5). Put plainly: Inhibition of human PBK at 1 uM using substrate peptide by off-chip mobility shift assay.
Lymphokine-activated killer T-cell-originated protein kinase (Homo sapiens), sequence (Q96KB5 whole entry): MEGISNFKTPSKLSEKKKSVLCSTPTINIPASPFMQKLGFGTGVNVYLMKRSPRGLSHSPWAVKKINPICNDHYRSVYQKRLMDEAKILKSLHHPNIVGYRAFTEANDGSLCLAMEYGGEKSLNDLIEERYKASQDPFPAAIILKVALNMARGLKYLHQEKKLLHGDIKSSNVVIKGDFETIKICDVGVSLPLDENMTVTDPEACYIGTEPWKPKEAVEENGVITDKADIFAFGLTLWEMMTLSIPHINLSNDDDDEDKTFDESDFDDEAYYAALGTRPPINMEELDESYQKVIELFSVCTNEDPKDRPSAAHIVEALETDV
The target in assay [37] is Serine/threonine-protein kinase Nek2 (Homo sapiens) (UniProt P51955). The experiment in a line: Inhibition of human NEK2 at 1 uM using substrate peptide by off-chip mobility shift assay.
Assay [38] has as its target cAMP-dependent protein kinase catalytic subunit alpha (Homo sapiens) (UniProt P17612). The experiment in a line: Inhibition of human PKACalpha at 1 uM using substrate peptide by off-chip mobility shift assay.
Assay [39] concerns the target Dual specificity tyrosine-phosphorylation-regulated kinase 1B (Homo sapiens) (UniProt Q9Y463). Put plainly: Inhibition of human DYRK1B at 1 uM using substrate peptide by off-chip mobility shift assay.

The source made the active and inactive calls. No cut-off for these calls is given here.

Interleukin-1 receptor-associated kinase 4 (Homo sapiens), sequence (Q9NWZ3 whole entry): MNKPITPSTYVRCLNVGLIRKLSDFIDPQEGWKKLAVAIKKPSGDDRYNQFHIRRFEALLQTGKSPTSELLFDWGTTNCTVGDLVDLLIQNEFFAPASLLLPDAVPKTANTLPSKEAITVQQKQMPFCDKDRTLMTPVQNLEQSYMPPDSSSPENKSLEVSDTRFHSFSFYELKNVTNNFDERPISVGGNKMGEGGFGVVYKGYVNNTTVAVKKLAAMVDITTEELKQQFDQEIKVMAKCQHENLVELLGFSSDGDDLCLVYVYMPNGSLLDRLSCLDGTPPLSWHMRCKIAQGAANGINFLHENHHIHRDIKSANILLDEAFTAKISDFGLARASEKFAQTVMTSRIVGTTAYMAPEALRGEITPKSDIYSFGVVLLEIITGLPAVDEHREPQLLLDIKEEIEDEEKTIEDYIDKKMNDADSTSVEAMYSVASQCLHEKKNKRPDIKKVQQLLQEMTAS
CDK3/Cyclin E (Homo sapiens), sequence (P24864 whole entry, looked up): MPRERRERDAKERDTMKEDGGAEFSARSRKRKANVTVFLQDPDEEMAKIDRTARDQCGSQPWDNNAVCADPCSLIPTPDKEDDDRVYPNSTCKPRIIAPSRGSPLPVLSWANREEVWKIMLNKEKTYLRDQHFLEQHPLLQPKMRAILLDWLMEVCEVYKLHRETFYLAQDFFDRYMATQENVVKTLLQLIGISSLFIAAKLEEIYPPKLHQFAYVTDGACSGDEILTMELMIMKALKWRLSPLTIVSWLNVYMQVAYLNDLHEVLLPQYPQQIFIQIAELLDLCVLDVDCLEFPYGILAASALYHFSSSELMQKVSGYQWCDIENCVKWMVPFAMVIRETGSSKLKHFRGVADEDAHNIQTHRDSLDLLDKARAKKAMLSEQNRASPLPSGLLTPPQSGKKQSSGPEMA
CDK3/Cyclin E (Homo sapiens), sequence (Q00526 whole entry, looked up): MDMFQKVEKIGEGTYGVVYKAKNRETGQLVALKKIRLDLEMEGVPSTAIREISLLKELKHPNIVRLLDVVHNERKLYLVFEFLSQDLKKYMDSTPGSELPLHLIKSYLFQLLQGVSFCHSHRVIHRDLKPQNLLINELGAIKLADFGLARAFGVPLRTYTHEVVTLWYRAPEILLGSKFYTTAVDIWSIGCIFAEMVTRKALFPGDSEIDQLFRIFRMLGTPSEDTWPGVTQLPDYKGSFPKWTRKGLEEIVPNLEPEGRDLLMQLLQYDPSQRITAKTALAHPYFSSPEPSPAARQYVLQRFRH

In general, inhibition refers to how much of the control response was suppressed. With `CNC(=O)c1ccc([N+](=O)[O-])c(Nc2ccc(N3CC(OCCO)C3)cc2)c1`, the inhibition in assay [1] is > 90%. Also, the inhibition at 1 µM in the assay with MV4-11 is ≥ 50%.

As for `NC(=O)c1ccc(C(F)(F)F)c(Oc2ccc(OCCOC3CCOCC3)cc2)c1`, the inhibition in [1] is > 90%. Besides, the inhibition at 1 µM in the assay on MV4-11 is ≥ 50%.

As for `CC(=O)c1ccc(C(N)=O)cc1Oc1ccc(OCCOC2CCOCC2)cc1`, the inhibition entry in [2], in assay [3], in [4], in assay [5], in [6] and in [7] was “inactive” each time. Further, the inhibition result in assay [8], in assay [9], in [10], in assay [11], in assay [12] and in assay [13] was “inactive” in each case. Also, the inhibition entry (in [14]; in assay [15]; in assay [16]; in the assay filed under Homo sapiens [17]; in [18]; in assay [19]) was “inactive” in each case. Moreover, the inhibition entry in [20], in assay [22], in assay [23], in assay [24], in [25] and in assay [26] was “inactive” in each case. Also, the inhibition entry in assay [27], in assay [28], in assay [29], in [30], in assay [31] and in assay [32] was “inactive” each time. For the same compound, the inhibition result (in assay [33]; in the assay filed under Homo sapiens [34]; in [35]; in assay [36]; in assay [37]; in assay [38]) was “inactive” throughout. In addition, the inhibition entry in assay [39] is “inactive”. Moreover, the inhibition in assay [1] and in assay [21] was > 90% each time. Further, the inhibition at 1 µM in the assay on MV4-11 was ≥ 50%.

As to `CC(=O)c1ccc(C(N)=O)cc1Oc1ccc(N2CC(OCCO)C2)cc1`, the inhibition in [1] was > 90%. For the same compound, the inhibition at 1 µM in the assay with MV4-11 was ≥ 50%.

In the case of `C=C(F)c1ccc(C(N)=O)cc1Oc1ccc(OCCOC2CCOCC2)cc1`, the inhibition in assay [1] was > 90%. Further, in the assay on MV4-11, the inhibition at 1 µM is ≥ 50%.

`C[C@@H](O)c1ccc(C(N)=O)cc1Oc1ccc(OCCOC2CCOCC2)cc1`: the inhibition in assay [1] and in assay [21] was > 90% throughout.

Consider `CC(=O)c1ccc(C(N)=O)cc1Nc1ccc(OCCOCCCC(=O)O)cc1`, for which the inhibition in assay [1] is > 90%.

For `CC(C)OCCOCCOc1ccc(Oc2cc(C(N)=O)ccc2C(F)(F)F)cc1`, the inhibition in assay [1] is > 90%.

Regarding `CC(=O)c1ccc(C(N)=O)cc1Oc1ccc(OCCOC2CCOC2)cc1` (configuration not stated), the inhibition in assay [1] is > 90%. For the same compound, in the assay on MV4-11, the inhibition at 1 µM was ≥ 50%.

In the case of `CC(=O)c1ccc(C(N)=O)c(Oc2ccc(N3CC(OCCO)C3)cc2)c1`, in assay [1], the inhibition was > 90%.

`CC(=O)c1ccc(C(N)=O)cc1Oc1ccc(OCCOCCOC(C)C)cc1`: the inhibition in assay [1] is > 90%. Further, the inhibition at 1 µM with MV4-11 is ≥ 50%.

In the case of `NC(=O)c1ccc([N+](=O)[O-])c(Nc2ccc(N3CC(OCCO)C3)cc2)c1`, the inhibition in assay [1] was > 90%. Besides, the inhibition at 1 µM with MV4-11 was ≥ 50%.

For the compound `COc1cc(Nc2ccc(N3CCN(CC(C)(C)C(=O)O)CC3)cc2)c([N+](=O)[O-])cc1F`, the inhibition in assay [1] is > 90%.

`NC(=O)c1ccc([N+](=O)[O-])c(Nc2ccc(OCCOC3CCOCC3)cc2)c1`: the inhibition in assay [1] was > 90%. Also, the inhibition at 1 µM in the assay with MV4-11 was ≥ 50%.

Source of the values: ChEMBL document CHEMBL4739709, “Novel cyclin-dependent kinase 8 and/or 19 inhibitor” (2020).
